According to patent US20220133761A1, “NEUTROPHIL APOPTOSIS INDUCED BY NANOPARTICLES FOR TREATING INFLAMMATORY DISEASES” (WASHINGTON STATE UNIVERSITY, priority 2020, published 2022):

How the values were obtained:
cerebral I/R mouse model = assay: Middle cerebral artery occlusion (MCAO) cerebral I/R mouse model; assay type: in vivo
Procedure: CD1 mice were used. Mice were anesthetized using 100 mg/kg of ketamine and 5 mg/kg of xylazine. They were positioned in the supine position on a heating pad. A carotid artery (CA) was exposed via the midline neck incision. An external carotid artery (ECA) was separated and occulated with two knots. Next, the internal carotid artery (ICA) was isolated, and the CA and ICA were clipped. A small hole was cut in the ECA above the second knot. A 6-0 medium MCAO suture was then introduced into ICA. Mice were kept for 60 min after occlusion in a heated cage, and the suture was withdrawn for reperfusion. Finally, the skin was closed and the mice were returned to the individual cage.
The damaged brain tissues were collected 24 h after MCAO and homogenized in PBS with 5% hexadecyltrimethylammonium bromide (HTAB). The homogenate was sonicated, and centrifuged at 13,000 rpm for 10 min. Next, 10 μL supernatant was loaded into each well of a 96-well plate. A solution of o-Dianisidine dihydrochloride with 0.0005% hydrogen peroxide in potassium phosphate buffer was added to the samples. Absorbance was measured at 450 nm. MPO activity is expressed as change in absorbance per minute per gram of tissue.
The damaged brain tissues of mice were collected 24 h after MCAO surgery and homogenized in PBS buffer. The level of cytokines (TNF-α, IL-1β, IL-6) was quantified using commercial ELISA assay as aforementioned.
Videos were taken 24 h after MCAO surgery and neurological deficit scores were given by two people. The scores are divided into five grades for neurological scores of mice after cerebral ischemia.

[1] = system: differentiated HL-60 cells (neutrophil-like cells); assay: In vitro cytotoxicity, CCK-8 assay; assay type: cell-based, human; details: 24 h, different concentrations of DOX
Procedure: Cytotoxic effects of BSA NPs on HL-60 cells were measured by CCK-8 assay. HL-60 cells were plated in 96-well plates (Costar, Corning, N.Y.) at 5,000-10,000 cells/well. After incubation for 24 h, the culture medium was removed and a complete medium with various concentrations of free DOX, BSA and DOX-conjugated BSA NPs was used to incubate cells for 24 h, respectively. 10 μL of the solution cell proliferation reagent (Promega, Madison, Wis.) per well was added. Then, the cell viability was measured by a Synergy Neo fluorescence plate reader (BioTek, Winooski, Vt.) at 490 nm.

LPS-challenged mice = assay: Acute lung inflammation mouse model (i.t. LPS), BALF neutrophils and cytokines; assay type: in vivo; details: vs free DOX and DOX-ab-BSA NPs
Procedure: Mice were anesthetized, and placed in a supine position head up on a board tilted at 15°. Afterwards, 10 mg/kg of LPS in HBSS was intratracheally (i.t.) administrated to mice with a FMJ-250 High Pressure Syringe (Penn-Century, Wyndmoor, Pa.). Mice were held upright for 2 min after administration.
Mice were challenged with i.t. injection of LPS (10 mg/kg). […] At 20 h post-drug administration, the mice were anesthetized with i.v. injection of a mixture of ketamine and xylazine. The BALF was collected by inserting a needle into the upper trachea. 0.9 mL HBSS was infused into the lungs and carefully withdrawn to obtain BALF. This process was repeated three times. BALF was collected and centrifuged at 350 g for 10 min at 4° C. The supernatant was collected for ELISA analysis. Afterwards, the cells were re-suspended in 0.5 ml of HBSS. The total cell number was determined with a hemocytometer.
Flow cytometry was utilized to quantify neutrophils in BALF. In detail, neutrophils from BALF were washed with 1 mL of 5% BSA in HBSS and centrifuged at 350 g for 10 min at 4° C. for three times, which was finally re-suspended in 400 μL of 5% BSA in HBSS. 3 μL of Alexa Fluor-647-labeled anti-mouse LY-6G antibody was added and incubated for 20 min in the dark, followed by washing with 1 mL of 0.1% BSA in HBSS under centrifugation for three times. Samples were then re-suspended in 400 μL 0.1% BSA in HBSS and filtered by a 100 μm filter, and analyzed by flow cytometer (Accuri C6 flow cytometer, BD Biosciences, San Jose, Calif.).
BALF was collected and centrifuged at 350 g for 10 min as described above. Supernatants from BALF were harvested for ELISA analysis. Concentrations of TNF-α, IL-6 and IL-1β in supernatants were determined with commercial ELISA kits according to the manufacturer's instructions (Biolegend, San Diego, Calif.). The triplicate experiment was conducted.

activated neutrophils = assay: Nanoparticle uptake by blood leukocytes in LPS-induced inflammation mouse model (CLSM, flow cytometry); assay type: in vivo
Procedure: To investigate cell uptake specificity of BSA NPs in circulation, blood cells were isolated and studied using confocal laser scanning microscopy (CLSM) and flow cytometry. Briefly, 4 h after LPS challenge (i.p., 20 mg kg^−1), DOX-hyd-BSA NPs were intravenously injected into mice. Healthy mice were used as control. 3 h later, the whole blood was harvested in a heparinized tube from the heart. Neutrophils in blood were isolated by Pluriselect anti-mouse LY-6G S-pluribeads according to the manufacturer's protocol (Pluriselect, Spring Valley, Calif.). The cells were fixed with 2 mL of 4% paraformaldehyde for 30 min and were stained with Alexa Fluor 488-labeled anti-mouse LY-6G antibody. A slide smear of cell solution was prepared by 7620 Cytopro Cytocentrifuge (ELITech, Princeton, N.J.). A drop of Prolong Gold Antifade reagent with DAPI (Invitrogen, Eugene, Oreg.) was added on the cells, and a coverslip was applied on the slide. 4 h later, the cells were observed using a Nikon A1R^+ confocal laser scanning microscope.
Flow cytometry to quantify neutrophil uptake of nanoparticles was also utilized. Blood leukocytes were isolated to determine the specificity of uptake of NPs in blood. In brief, 3 mL Histopaque 10771 was carefully layered on top of 3 mL Histopaque 11191 in a 15 mL centrifuge tube. […]

[2] = 0.2 mg/kg DOX i.v. 1 h after reperfusion, 22 h post-injection, vs free DOX and PBS
[3] = 0.2 mg/kg (DOX) i.v. 4 h after i.t. LPS

DOX-hyd-BSA NPs
cytokines in the brain (TNF-α, IL-1β, IL-6) (cerebral I/R mouse model; [2]): significantly reduced | neutrophil numbers in the brain (MPO activity) (cerebral I/R mouse model; [2]): significantly reduced | neurological deficits (behavior scores) (cerebral I/R mouse model; 0.2 mg/kg of DOX, 24 h after MCAO): enhanced mouse neurological recovery and improved mouse movements | cytotoxicity (cell viability) [1]: cytotoxicity was similar for both free DOX and DOX-hyd-BSA NPs | neutrophils in BALF (LPS-challenged mice; 0.2 mg/kg (DOX) i.v. 4 h after i.t. LPS 10 mg/kg): surprisingly and dramatically shown to decrease compared to controls | IL-1β in BALF (LPS-challenged mice; [3]): decreased | IL-6 in BALF (LPS-challenged mice; [3]): decreased | TNF-α in BALF (LPS-challenged mice; [3]): decreased | neutrophil uptake of NPs (activated neutrophils; 4 h after i.p. LPS 20 mg/kg, blood 3 h after i.v. NPs): neutrophil uptake was observed | uptake by T cells, monocytes and natural killer (NK) cells in blood (activated neutrophils; LPS-challenged mice, flow cytometry): did not take up BSA NPs
